The record followed here is US11970469B2 (Oxford University Innovation Limited, priority 2018, dated 2024).

Experiment [1] deals with T1, GST-human KRas166 (G12V) GPPNHP (Homo sapiens, UniProt P01116, G12V). Briefly: KRas small-molecule screening by SPR (BIACORE T200). Also noted: KRAS166 (G12V) was immobilized between 10,000 to 15,000 Response Units; made in house; host or cells: E. coli C41(DE3). The format is binding. Conditions: compounds at final concentration of 100 uM; immobilised KRAS166 (G12V) GPPNHP; no unit printed (method speaks of response units). How it is done:
(§1) For SPR assays pGEX-KRAS(G12V) plasmid was transformed into E. coli C41(DE3). Bacterial cells were cultured at 37° C. to an OD600 of 0.6 and induced with IPTG (final 0.1 mM) at 18° C. over night. The GST fusion proteins were extracted from bacteria pellets after cell disruption in 140 mM NaCl, 2.7 mM KCl, 10 mM NaH2PO4, 1.8 mM KH2PO4, 1 mM EDTA, 2 mM MgCl2 pH 7.4 and purified by glutathione-sepharose column chromatography (GE Healthcare), eluting with 50 mM Tris-HCl pH8.0, 10 mM reduced glutathione, 1 mM DTT, 2 mM MgCl2. The eluted proteins were dialysed against 50 mM Tris-HCl pH8.0, 1 mM DTT, 2 mM MgCl2 and concentrated to 10 mg/ml using a Biomax-30 ULTRAFREE-15 centrifugal filter device (Millipore). Purified KRAS protein was loaded with GPPNHP as described elsewhere (Pacold et al., 2000). Loaded protein was then purified by gel filtration on a HiLoad Superdex-75 HR column (GE Healthcare) in 1×PBS pH7.4, 5 mM MgCl2 and concentrated for storage. Protocol for KRas small-molecule screening and affinity measurements by SPR
To a previously immobilized CM5 chip (GE Healthcare BR-1005-30) with anti GST antibody via amine coupling method, GST in channel 1 and GST-human KRas166 (G12V) GPPNHP in channel 2 were immobilised. GST was immobilised between 2,000 and 5,000 Response units. KRAS166 (G12V) was immobilized between 10,000 to 15,000 Response Units. […]

Experiment [2] has as its system RASG12D/CRAF FL. In words: BRET2 cell assay with BRET-based RAS biosensor (RAS-effector) in HEK293T. To be noted: 10 uM compound, 20 hours. How it is done: 650,000 HEK293T were seeded in each well of a 6 well plate. 24 hours later, cells were transfected with an appropriated BRET-based RAS biosensor (i.e. RAS-effector) using Lipofectamine 2000 transfection reagent (Thermo-Fisher). Cells were detached 24 hours later and washed with PBS and seeded in a white 96 well plate (clear bottom, PerkinElmer, cat #6005181) in OptiMEM no phenol red medium (Life Technologies) complemented with 4% FBS. Cells were left for 4 hours at 37° C. before adding compounds. Stock compounds were held at 10 mM in 100% DMSO and diluted in OptiMEM no red phenol+4% FBS to reach 10× the final concentration (2% DMSO for each concentration). The final concentrations in the cells were 0, 5, 10 and 20 μM (therefore the intermediate 10× concentrations were 0, 50, 100 and 200 μM. 10 μL of 10× compounds were added in each well of the 96 well plate to 0, 5, 10 and 20 μM final concentrations (with final 0.2% DMSO each). Quadruplicates were performed for each point. Cells were left for an additional 20 hours at 37° C. before the BRET2 signal reading directly after addition of Coelenterazine 400a substrate (10 μM final) to cells (Cayman Chemicals, cat #16157). BRET2 reading was carried out on an Envision instrument (2103 Multilabel Reader, PerkinElmer) with the BRET2 Dual Emission optical module (515 nm±30 and 410 nm±80; PerkinElmer).

Experiment [3] deals with DLD1 cells (ATCC CCL-221). In words: Cell viability assay, DLD-1 (CellTiter-Glo). Conditions: Homo sapiens; DLD-1 cells, 72 h, dose response 5, 10, 15, 20 μM. The format is cell-based. How it is done: DLD1 cells (ATCC CCL-221) are cultured in RPMI-1640 medium plus 10% foetal calf serum and 2 mM L-glutamine at 37° C. 5% CO2. Cells are plated onto white clear bottom 96-well plates (5000 cells/well in 200 μl media) and left to adhere overnight at 37° C., 5% CO2. Next day, test compound (1 μl at 200× concentration in 100% DMSO) is added to give final test compound concentration 1× in 0.5% DMSO. After 72 h of incubation at 37° C. 5% CO2, 20 μl CellTiter-Glo reagent (Promega G7572) is added into each well. Plates are incubated at room temperature with shaking for 30 min and then luminescence is read using a PheraStar plate reader. The concentration of compounds that decrease cell viability by 50% is calculated from dose response curves generated using Dotmatics data analysis software Results

For experiment [4], the target named is T1, GST-human KRas166 (G12V) GPPNHP. In words: KRas small-molecule screening by SPR (BIACORE T200). The experiment is classed as binding. Also noted: made in house; host or cells: E. coli C41(DE3); key: SPR response units (RU). Conditions: compounds at final concentration of 100 uM; immobilised KRAS166 (G12V) GPPNHP; no unit printed (method speaks of response units). How it is done:
as §1
To a previously immobilized CM5 chip (GE Healthcare BR-1005-30) with anti GST antibody via amine coupling method, GST in channel 1 and GST-human KRas166 (G12V) GPPNHP in channel 2 were immobilised. GST was immobilised between 2,000 and 5,000 Response units. KRAS166 (G12V) was immobilized between 10,000 to 15,000 Response Units.
In a 96 well plate, compounds were diluted in […], 5 mM MgCl2 and 5% DMSO Buffer to a final concentration of 100 uM. DCAI was used as positive control. Experiment also included a solvent correction curve for 5% DMSO. Screening and evaluation of the protein immobilization and the compounds screening was done accordingly to the BIACORE T200 control and evaluation software.
Calculations for how many response units are required for a 1:1 ratio of compound/protein interaction are shown below. • Protein immobilisation: 10,000 RU; average fragment 300 Da in size. Rmax=(MWA/MWL)×RL×SM • MWA is the molecular weight of the analyte in Da • MWL is the molecular weight of the ligand in Da • RL is the immobilization level in RU • SM is the molar stoichiometry (assume 1:1) • Rmax=300/47,500×10,000×1 • Rmax=63 RU. BRET2 Cell Assay

On to `COc1cccc(-c2ccc(Nc3ccc(C(=O)NCC4CCN(C(=O)OC(C)(C)C)CC4)cc3)cc2)c1` [Example 19], for which the SPR in experiment [1] is recorded as 33.
Take `COc1cccc(-c2ccc(Nc3ccc(CN(C)C)cc3)c(OC)c2)c1` [Example 2, N-(4-((dimethylamino)methyl)phenyl)-3,3′-dimethoxy-[1,1′-biphenyl]-4-amine]: in experiment [2], the “BRET RASG12D/CRAF FL % Inhibition (10 uM)” value is given as 18%. Also, in experiment [3], half-maximal inhibition (IC50) was put at 7.2 µM. In addition, the SPR in experiment [4] came out at 233.
